Assay results: patent US9681664B2, “Macrocyclic picolinamides as fungicides” (Dow Agrosciences LLC, priority 2012, dated 2017)
Where two headings read alike, the source gives them in different places.

Key:
[1] = test system: Mycosphaerella graminicola; Anamorph: Septoria tritici; experiment: Leaf blotch of wheat (SEPTTR) disease control on wheat seedlings; type: in vivo; conditions: Zymoseptoria tritici, High volume application, 100 ppm
Procedure: Technical grades of materials were dissolved in acetone, which were then mixed with nine volumes of water containing 110 ppm Triton X-100. The fungicide solutions were applied onto wheat seedlings using an automated booth sprayer to run-off. All sprayed plants were allowed to air dry prior to further handling. All fungicides were evaluated using the aforementioned method for their activity vs. all target diseases. Wheat leaf blotch and brown rust activity were also evaluated using track spray applications, in which case the fungicides were formulated as EC formulations, containing 0.1% Trycol 5941 in the spray solutions. Wheat plants (variety Yuma) were grown from seed in a greenhouse in 50% mineral soil/50% soil-less Metro mix until the first leaf was fully emerged, with 7-10 seedlings per pot. These plants were inoculated with an aqueous spore suspension of Septoria tritici either prior to or after fungicide treatments. After inoculation the plants were kept in 100% relative humidity (one day in a dark dew chamber followed by two to three days in a lighted dew chamber at 20° C.) to permit spores to germinate and infect the leaf. The plants were then transferred to a greenhouse set at 20° C. for disease to develop. When disease symptoms were fully expressed on the 1st leaves of untreated plants, infection levels were assessed on a scale of 0 to 100 percent disease severity. Percent disease control was calculated using the ratio of disease severity on treated plants relative to untreated plants.

[2] = test system: Puccinia triticina; Synonym: Puccinia recondite f. sp. tritici; experiment: Wheat brown rust (PUCCRT) disease control on wheat seedlings; type: in vivo; conditions: Puccinia triticina, High volume application, 100 ppm
Procedure: Technical grades of materials were dissolved in acetone, which were then mixed with nine volumes of water containing 110 ppm Triton X-100. The fungicide solutions were applied onto wheat seedlings using an automated booth sprayer to run-off. All sprayed plants were allowed to air dry prior to further handling. All fungicides were evaluated using the aforementioned method for their activity vs. all target diseases. Wheat leaf blotch and brown rust activity were also evaluated using track spray applications, in which case the fungicides were formulated as EC formulations, containing 0.1% Trycol 5941 in the spray solutions. Wheat plants (variety Yuma) were grown from seed in a greenhouse in 50% mineral soil/50% soil-less Metro mix until the first leaf was fully emerged, with 7-10 seedlings per pot. These plants were inoculated with an aqueous spore suspension of Puccinia triticina either prior to or after fungicide treatments. After inoculation the plants were kept in a dark dew room at 22° C. with 100% relative humidity overnight to permit spores to germinate and infect the leaf. The plants were then transferred to a greenhouse set at 24° C. for disease to develop. Fungicide formulation, application and disease assessment followed the procedures as described in the Example A.

[3] = 24 h, 1 Day Protectant, read-out: SEPTTR 1DP disease control
[4] = 72 h, 3 Day Curative, read-out: SEPTTR 3DC disease control
[5] = 24 h, 1 Day Protectant, read-out: PUCCRT 1DP disease control
[6] = 72 h, 3 Day Curative, read-out: PUCCRT 3DC disease control

Structure (SMILES)	pest or weed control at 100 ppm [1, 3]	pest or weed control at 100 ppm [1, 4]	pest or weed control at 100 ppm [2, 5]	pest or weed control at 100 ppm [2, 6]
COc1ccc(O[C@H]2[C@H](C)OC(=O)[C@@H](NC(=O)c3nccc(OC)c3OCOC(=O)C(C)C)CCC[C@@H]2Oc2ccc(OC)cc2)cc1 [F67]	80 to 100%	0 to 80%	80 to 100%	80 to 100%
COc1ccc(O[C@H]2CCC[C@H](NC(=O)c3nccc(OC)c3OCOC(=O)C(C)C)C(=O)O[C@@H](C)[C@@H]2OCC(C)C)cc1 [F69]	80 to 100%	80 to 100%	80 to 100%	80 to 100%
CCCCCO[C@H]1[C@H](C)OC(=O)[C@@H](NC(=O)c2nccc(CC)c2O)CCC[C@@H]1OCC(C)C [F70]	0 to 80%	0 to 80%	0 to 80%	0 to 80%
CCc1ccnc(C(=O)N[C@H]2CCC[C@H](OCC(C)C)[C@@H](OCCC(C)OC)[C@H](C)OC2=O)c1O (stereo partly drawn) [F71]	0 to 80%	0 to 80%	0 to 80%	80 to 100%
COc1ccnc(C(=O)N[C@H]2CCC[C@H](OCC(C)C)[C@@H](OCCC(C)OC)[C@H](C)OC2=O)c1OCOC(C)=O (stereo partly drawn) [F72]	80 to 100%	80 to 100%	80 to 100%	80 to 100%
COc1ccnc(C(=O)N[C@H]2CCC[C@H](OC3CCCC3)[C@@H](Oc3ccccc3)[C@H](C)OC2=O)c1O [F74]	80 to 100%	80 to 100%	80 to 100%	80 to 100%
COc1ccnc(C(=O)N[C@H]2CCC[C@H](Oc3ccccc3)[C@@H](OC3CCCC3)[C@H](C)OC2=O)c1O [F75]	80 to 100%	80 to 100%	80 to 100%	80 to 100%
COc1ccnc(C(=O)N[C@H]2CCC[C@H](OCC(C)C)[C@@H](Oc3ccc(C)cc3)[C@H](C)OC2=O)c1O [F82]	< 0%	0 to 80%	0 to 80%	0 to 80%
COc1ccnc(C(=O)N[C@H]2CCC[C@H](OCC(C)C)[C@@H](OCCC(C)OC)[C@H](C)OC2=O)c1OC(C)=O (stereo partly drawn) [F83]	80 to 100%	80 to 100%	80 to 100%	80 to 100%
COc1ccnc(C(=O)N[C@H]2CCC[C@H](OC(=O)C3CCCC3)[C@@H](OC(=O)C3CCCC3)[C@H](C)OC2=O)c1O [F84]	0 to 80%	0 to 80%	0 to 80%	0 to 80%
COc1ccnc(C(=O)N[C@H]2CCC[C@H](OCCCC(F)(F)F)[C@@H](OCCCC(F)(F)F)[C@H](C)OC2=O)c1O [F85]	< 0%	0 to 80%	< 0%	0 to 80%
COc1ccnc(C(=O)N[C@H]2CCC[C@H](OCC(C)C)[C@@H](Oc3ccc(C)cc3)[C@H](C)OC2=O)c1OCOC(C)=O [F86]	80 to 100%	80 to 100%	80 to 100%	80 to 100%
COc1ccnc(C(=O)N[C@H]2CCC[C@H](OCCCC(F)(F)F)[C@@H](OCCCC(F)(F)F)[C@H](C)OC2=O)c1OCOC(C)=O [F87]	80 to 100%	80 to 100%	80 to 100%	80 to 100%
COc1ccnc(C(=O)N[C@H]2CCC[C@H](OC(=O)C3CCCC3)[C@@H](OC(=O)C3CCCC3)[C@H](C)OC2=O)c1OCOC(C)=O [F88]	80 to 100%	80 to 100%	80 to 100%	80 to 100%
CCCCCO[C@H]1[C@H](C)OC(=O)[C@@H](NC(=O)c2nccc(OC)c2OC(C)=O)CCC[C@@H]1OCC(C)C [F89]	80 to 100%	80 to 100%	80 to 100%	80 to 100%
COc1ccnc(C(=O)N[C@H]2CCC[C@H](OCCCC(F)(F)F)[C@@H](OCCCC(F)(F)F)[C@H](C)OC2=O)c1OC(C)=O [F90]	80 to 100%	80 to 100%	80 to 100%	80 to 100%
COc1ccnc(C(=O)N[C@H]2CCC[C@H](OC(=O)C3CCCC3)[C@@H](OC(=O)C3CCCC3)[C@H](C)OC2=O)c1OC(C)=O [F91]	80 to 100%	80 to 100%	80 to 100%	80 to 100%
COc1ccnc(C(=O)N[C@H]2CCC[C@H](OCC(C)C)[C@@H](Oc3ccc(C)cc3)[C@H](C)OC2=O)c1OC(C)=O [F92]	80 to 100%	80 to 100%	80 to 100%	80 to 100%
CCCO[C@H]1[C@H](C)OC(=O)[C@@H](NC(=O)c2nccc(OC)c2O)CCC[C@@H]1Oc1ccccc1 [F93]	80 to 100%	80 to 100%	80 to 100%	80 to 100%
CCCCCO[C@H]1[C@H](C)OC(=O)[C@@H](NC(=O)c2nccc(OC)c2O)CCC[C@@H]1Oc1ccccc1 [F94]	0 to 80%	0 to 80%	0 to 80%	< 0%
CCCCCO[C@H]1[C@H](C)OC(=O)[C@@H](NC(=O)c2nccc(OC)c2OCOC(C)=O)CCC[C@@H]1Oc1ccccc1 [F96]	80 to 100%	80 to 100%	80 to 100%	80 to 100%
CCCO[C@H]1[C@H](C)OC(=O)[C@@H](NC(=O)c2nccc(OC)c2OCOC(=O)C(C)C)CCC[C@@H]1Oc1ccccc1 [F97]	80 to 100%	80 to 100%	80 to 100%	80 to 100%
CCCCCO[C@H]1[C@H](C)OC(=O)[C@@H](NC(=O)c2nccc(OC)c2OCOC(=O)C(C)C)CCC[C@@H]1Oc1ccccc1 [F98]	80 to 100%	80 to 100%	80 to 100%	80 to 100%
COc1ccnc(C(=O)N[C@H]2CCC[C@H](OC(=O)C3CCCC3)[C@@H](OC(=O)C3CCCC3)[C@H](C)OC2=O)c1OCOC(=O)C(C)C [F99]	80 to 100%	80 to 100%	80 to 100%	80 to 100%
COc1ccnc(C(=O)N[C@H]2CCC[C@H](OCCCC(F)(F)F)[C@@H](OCCCC(F)(F)F)[C@H](C)OC2=O)c1OCOC(=O)C(C)C [F100]	80 to 100%	80 to 100%	80 to 100%	80 to 100%
COc1ccnc(C(=O)N[C@H]2CCC[C@H](OCC(C)C)[C@@H](Oc3ccc(C)cc3)[C@H](C)OC2=O)c1OCOC(=O)C(C)C [F101]	80 to 100%	80 to 100%	80 to 100%	80 to 100%
CCCO[C@H]1[C@H](C)OC(=O)[C@@H](NC(=O)c2nccc(OC)c2OC(C)=O)CCC[C@@H]1Oc1ccccc1 [F102]	80 to 100%	80 to 100%	80 to 100%	80 to 100%
CCCCCO[C@H]1[C@H](C)OC(=O)[C@@H](NC(=O)c2nccc(OC)c2OC(C)=O)CCC[C@@H]1Oc1ccccc1 [F103]	80 to 100%	80 to 100%	80 to 100%	80 to 100%
COc1ccnc(C(=O)N[C@H]2CCC[C@H](Oc3ccccc3)[C@@H](OC/C=C/C(F)(F)F)[C@H](C)OC2=O)c1O [F104]	80 to 100%	< 0%	80 to 100%	< 0%
COc1ccnc(C(=O)N[C@H]2CCC[C@H](Oc3ccccc3)[C@@H](OCCCC(F)(F)F)[C@H](C)OC2=O)c1O [F105]	80 to 100%	0 to 80%	80 to 100%	< 0%
